Reference: article PMC10447463, “Data-mining unveils structure–property–activity correlation of viral infectivity enhancing self-assembling peptides” (Nature Communications, 2023)

Key:
[1] = system: HIV-1 infection of TZM-bl cells; assay: HIV-1 infectivity enhancement assay, β-galactosidase luminescence; type: cell-based
[2] = Turbidity, derived count rate of scattered light; type: physicochemical; conditions: for Count Rate / kcps: derived count rate of scattered light at 633 nm, 173°, from zeta-potential measurement, 0.1 mg/mL in 1 mM KCl after 1 d at 1 mg/mL in PBS, turbidity / microscopic aggregation, mean of triplicate; for Log Count Rate: log of derived count rate
How it was run: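 One-day room-temperature aggregation at 1 mg/mL in PBS (pH 7.4) preceded measurement; samples then went into 1 mM KCl. Triplicates per sample, two independent experiments averaged.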

[3] = Feb2021 run; infectivity n-fold relative to virus alone
[4] = Feb2021 run; log10 of infectivity relative to EF-C
[5] = Feb2021 run; n-fold infectivity relative to EF-C
[6] = infectivity class (low / medium / high) of each library peptide; main list in c1-c6, same classes repeated in sub-lists of sequences containing the hydrophobicity/charge patterns P+,H0,P+,H0,P0,H0,P0; P+,H0,P0,H0,P0,H0,P0; P+,H0,P0,H0
[7] = infectivity class (low / medium / high) of the peptide in the sequence-pattern analysis, Fig. S22-A4; class limits not given
[8] = log10 of HIV-1 infection of TZM-bl cells relative to EF-C; Fig S15 source data; asymmetric std dev errors
[9] = derived count rate of scattered light, mean, std deviation in separate column
[10] = HIV-1 infection relative to EF-C; Fig 23 plot, panels A and B; mean of 3 values
[11] = HIV-1 infection relative to EF-C; Fig 23 plot, single data point, replicate 1
[12] = HIV-1 infection relative to EF-C; Fig 23 plot, single data point, replicate 2
[13] = HIV-1 infection relative to EF-C; Fig 23 plot, single data point, replicate 3
[14] = log10 of infection relative to EF-C, Figure 6C
[15] = n-fold infection vs virus only, relative to that of EF-C, 1.3 µM peptide
[16] = log10 of derived count rate of scattered light, Figure 6C
[17] = logarithm of count rate in kcps
[18] = log10 of infection relative to EF-C, Figure 7B
[19] = Feb2021; figures match the 1.3 µM column
[20] = Feb2021; infectivity relative to virus only
[21] = Feb2021; log10 of infectivity relative to EF-C
[22] = Feb2021; n-fold infectivity relative to EF-C
[23] = derived count rate of scattered light

Row | Substance | n-fold to virus (Feb2021) [1, 3] | Log10 of Rel to EFC (Feb2021) [1, 4] | Rel-to EFC (Feb-2021) [1, 5] | infectivity [1, 6] | infectivity [1, 7] | Log10 Inf. rel. to EF-C [1, 8] | Zeta Count Rate / kcps [2, 9] [kcps] | Log10 Infection Rel EF-C [1, 14] | Inf. rel. EF-C [1, 15] | Count Rate / kcps [2] [kcps] | Log10 Count Rate [2, 16] | Log10 Count Rate [2, 17] | other results
1 | KIKIQINMWQRGD [VH17-II] | 0.5086 | -1.917 | 0.0121 | low | low | -1.917 | 2783 | – | – | – | – | – | –
2 | RVRVTVT | – | – | – | – | – | – | – | -1.225 | 0.06 | 25.33 | 1.404 | 1.404 | Inf. rel. EF-C [1, 10]: 0.05962; Inf. rel. EF-C [1, 11]: 0.04632; Inf. rel. EF-C [1, 12]: 0.07129; Inf. rel. EF-C [1, 13]: 0.06124
3 | KYFIL [reference compound] | – | – | – | – | – | – | – | – | 0.07 | 18903 | – | – | Log10 Infection Rel EF-C [1, 18]: -1.14
4 | GYVIIK [reference compound] | – | – | – | – | – | – | – | – | 0.10 | 30 | – | – | infectivity enhancement, in words ([1]; fibril-forming peptides with positive zeta-potential, low count rate): do not enhance infectivity; Log10 Infection Rel EF-C [1, 18]: -0.99
5 | KIKIQINMWWWQ [VH12] | 115.5 | 0.4391 | 2.749 | high | high | 0.4391 | 7596.3 | – | – | – | – | – | –
6 | KAKLTCT | – | – | – | – | – | – | – | -1.177 | 0.07 | 16.8 | 1.225 | 1.225 | Inf. rel. EF-C [1, 10]: 0.0665; Inf. rel. EF-C [1, 11]: 0.09602; Inf. rel. EF-C [1, 12]: 0.05821; Inf. rel. EF-C [1, 13]: 0.04527
7 | KIKIWIW | – | – | – | – | – | – | – | -0.4875 | 0.33 | 607.7 | 2.784 | 2.784 | –
8 | RGECKFKFQF [CN16] | – | – | – | medium | – | -0.4776 | – | – | – | – | – | – | Absolute Infectivity / RLU /s (Feb2021) [1, 19]: 7411 RLU /s; n-fold to virus (Feb2021) [1, 20]: 13.99; Log10 of Rel to EFC (Feb2021) [1, 21]: -0.4776; Rel-to EFC (Feb-2021) [1, 22]: 0.3329; Zeta Count Rate Category ([2]; category 1 / 0, no key given): 1; Zeta Count Rate / kcps [2, 23]: 219.3 kcps
9 | HLHLPLL [CN14] | – | – | – | low | – | -1.9991 | – | – | – | – | – | – | Absolute Infectivity / RLU /s (Feb2021) [1, 19]: 133.3 RLU /s; n-fold to virus (Feb2021) [1, 20]: 0.4211; Log10 of Rel to EFC (Feb2021) [1, 21]: -1.999; Rel-to EFC (Feb-2021) [1, 22]: 0.01002; Zeta Count Rate Category ([2]; category 1 / 0, no key given): 1; Zeta Count Rate / kcps [2, 23]: 200 kcps
10 | RGDKIKIQINMC [psis29] | 44.93 | 0.02911 | 1.069 | high | high | 0.02911 | 1404 | – | – | – | – | – | Rel-to EFC (Feb-2021) ([1]; infectivity enhancement relative to EF-C (=1); Feb2021 run): 1.069; n-fold to virus (Feb2021) ([1]; infectivity n-fold relative to virus only; Feb2021 run): 44.93; Log10 of Rel to EFC (Feb2021) ([1]; log10 of infectivity relative to EF-C; Feb2021 run): 0.02911; Zeta Count Rate / kcps ([2]; derived count rate from zeta measurement, mean): 1404 kcps; Zeta Count Rate Category ([2]; key not given): 1
11 | KIKIQIN [JGB3] | 11.14 | -0.5766 | 0.2651 | medium | – | -0.5766 | 43.43 | – | – | – | – | – | Rel-to EFC ([1]; Fig S8 panels B, D; infectivity enhancement relative to EF-C): 0.2651; n-fold to virus ([1]; Fig S8 panels B, D; infectivity n-fold relative to virus alone): 11.14; Log Count Rate ([2]; Fig S8 panels A, C, asymmetric log errors): 1.638; Log Count Rate ([2]; Fig S8 panels B, D): 1.638; Count Rate ([2]; Fig S8 panels B, D, turbidity, derived count rate of scattered light): 43.43
12 | HHHHKAKAKAKAWWWW [TM8] | – | – | – | – | low | -1.048 | – | – | – | – | – | – | Absolute Infectivity / RLU /s (Feb2021) [1, 19]: 3233 RLU /s; n-fold to virus (Feb2021) [1, 20]: 3.76; Log10 of Rel to EFC (Feb2021) [1, 21]: -1.048; Rel-to EFC (Feb-2021) [1, 22]: 0.08948; Zeta Count Rate Category ([2]; category 1 / 0, no key given): 1; Zeta Count Rate / kcps [2, 23]: 658.9 kcps
13 | CKIKIWIW | – | – | – | – | – | – | – | -0.06382 | 0.86 | 3321 | 3.521 | 3.521 | –
